Laboratory results reported in patent US10081609B2, “Compounds for inducing proliferation and differentiation of cells, and methods of use thereof” (The Broad Institute, Inc., priority 2013, dated 2018).
Converted amounts (≈) assume the structure as drawn. Like-named read-outs stand apart in the source and are kept apart here.

Columns and labels:
human hepatocytes = test: CYP450 induction control in human hepatocytes; type: cell-based; conditions: 250 μM
Description: To confirm the staining results, secreted levels of albumin and AFP via ELISA, and CYP450 activities through isoenzyme-specific probes that are either fluorescent or luminescent were measured. ELISA results verified both an increase in albumin secretion and a decrease in AFP secretion by treated iHeps (FIG. 4D bottom). CYP3A4 activity increased by 16 and 45 times upon treatment with FH1 and FPH2, respectively. […] Induction was considered as a possible explanation for these elevations in CYP450 activity. However, this was unlikely based on the following experiments. […] Since a period of at least 48 hrs separated compound treatment and the measurement of CYP450 activity, the iHeps were expected to have recovered from any general elevations in CYP450 activity.

[1] = test system: human primary hepatocytes; test: Expansion of compound-treated human primary hepatocytes (cell counts, Ki67 staining); type: cell-based; conditions: for proliferation of hepatocytes: FIG. 11A
Description: The metabolic phenotype of the treated hepatocytes was assessed for canalicular transport. […] Gene expression profiling confirmed that there was no significant differences between FPH-treated and untreated hepatocytes (FIG. 11D).
The ability of compounds 201-212, 215, 217 and 244-258 to expand human primary hepatocytes in vitro was also tested.

[2] = Microsomal stability - Human; type: in vitro ADME; conditions: for Microsomal stability No NADPH: non-enzymatic microsomal mechanisms only; for Microsomal stability Average: enzymatic and non-enzymatic microsomal mechanisms
Description: (§1) Selected compounds of the invention were evaluated for physico-chemical properties, including solubility, microsomal stability, protein binding and plasma stability (Table 2).
(§2) Selected compounds of the invention were evaluated for physico-chemical properties, including solubility, microsomal stability, protein binding and plasma stability (Table 3).

Plasma stability - Human = type: in vitro ADME
Description: as §1, §2

Protein binding - Human = type: in vitro ADME
Description: as §1, §2

iHeps [3] = test: Cytochrome P450 activity in treated iHeps; type: cell-based; conditions: iHeps treated for 9 days
Excerpt: iPS Cells were differentiated into iHeps, treated with selected compounds of the invention for 9 days, then assayed for CYP functions. The general CYP activity of the iHeps treated with compounds of the invention were elevated (FIG. 20A).

[4] = Solubility in PBS with 1% DMSO; type: physicochemical; conditions: aqueous buffer, kinetic from dmso stock
Description: as §1, §2

[5] = test system: human iPS-derived hepatocyte-like cells (iHeps); test: In vitro maturation of iHeps: ELISA of albumin and AFP; type: cell-based; conditions: iHeps treated for 9 days
Description: The in vitro maturation effects of selected compounds of the invention on human iPS-derived hepatocyte-like cells (iHeps) were evaluated. Human iPS cells were differentiated into iHeps and treated with selected compounds of the invention for 9 days. Maturity of treated iHeps was evaluated through ELISA quantification of mature (albumin) and immature (AFP) markers. Results are illustrated in FIG. 19.

iHeps [6] = test: Differentiation and maturation of iHeps (albumin/AFP ELISA, staining, CYP3A4 activity); type: cell-based, human
Description: Undifferentiated iPS cells were cultured on Matrigel, supported by primary mouse embryonic fibroblasts. Once confluent, iPS cells were transitioned to differentiation media, with sequential addition of growth factors (Activin A, BMP-4, bFGF, HGF, and OSM) to guide differentiation, first into endoderm, then into hepatic progenitor cells and finally into iHeps. Compound treatment started on day 21 post initiation of differentiation and acted over a period of 9 days.
Consistent with the literature, untreated cultures had islands that double stain for albumin and the fetal marker AFP, with very little presence of the mature marker […].
The ability of compounds 201-212, 217 and 244-258 to affect the differentiation of iHeps was also tested.

Microsomal stability Rep1 [2] | Microsomal stability Rep2 [2] | Microsomal stability No NADPH [2] | Microsomal stability Average [2] | Plasma stability Average (Plasma stability - Human) | Protein binding Average (Protein binding - Human) | Protein binding Rep1 (Protein binding - Human) | Protein binding Rep2 (Protein binding - Human) | experimental range of effective concentrations, CYP2A6 (iHeps [3]) | experimental range of effective concentrations, CYP3A4 (iHeps [3]) | experimental range of effective concentrations, CYP3A7 (iHeps [3]) | experimental range of effective concentrations, general CYP activity (general BFC) (iHeps [3]) | solubility ([4]; read-out: Solubility Average) | solubility ([4]; read-out: Solubility Rep1) | solubility ([4]; read-out: Solubility Rep2) | solubility ([4]; read-out: Solubility Rep3) | Structure (SMILES) | proliferation of hepatocytes [1] | experimental range of effective concentrations, albumin (mature marker) [5] | other results
– | – | – | – | – | – | – | – | – | – | – | – | – | – | – | – | O=c1cc(-c2ccccc2)oc2ccc3ccccc3c12 [BNF, β-naphthoflavone] | – | – | CYP450 activity (human hepatocytes): elevated
52.4 % remaining | 59.3 % remaining | 94.4 % remaining | 55.8 % remaining | 87.1 % remaining | 99.5 % bound | 99.4 % bound | 99.5 % bound | 10 to 26.7 µM | 6.7 to 20 µM | 10 to 13.3 µM | 13.3 µM | 41 µM (≈ 22.5 µg/mL) | 33 µM (≈ 18.1 µg/mL) | 47 µM (≈ 25.8 µg/mL) | 41 µM (≈ 22.5 µg/mL) | C[C@H](CO)N1C[C@H](C)[C@H](CN(C)C(=O)Nc2ccc(F)cc2)Oc2ncc(C#Cc3ccc(F)cc3)cc2C1=O [Compound 107, 3-(4-fluorophenyl)-1-(((2R,3S)-8-((4-fluorophenyl)ethynyl)-5-((R)-1-hydroxypropan-2-yl)-3-methyl-6-oxo-3,4,5,6-tetrahydro-2H-pyrido[2,3-b][1,5]oxazocin-2-yl)methyl)-1-methylurea] | induced proliferation | 5 to 20 µM | Ki67 staining co-localized with Hoechst and human albumin stains [1]: increased
99.4 % remaining | 95.3 % remaining | 102.3 % remaining | 97.4 % remaining | 104.2 % remaining | 12.0 % bound | 11.8 % bound | 12.1 % bound | 10 to 20 µM | 6.7 to 13.3 µM | 6.7 to 10 µM | 6.7 to 13.3 µM | > 100 µM | > 100 µM | > 100 µM | > 100 µM | C[C@H]1CN([C@@H](C)CO)C(=O)CCCn2cc(nn2)CO[C@H]1CN(C)C(=O)C1CC1 [Compound 108, N-(((4R,5S,Z)-7-((S)-1-hydroxypropan-2-yl)-5-methyl-8-oxo-11H-3-oxa-7-aza-1(4,1)-triazolacycloundecaphane-4-yl)methyl)-N-methylcyclopropanecarboxamide] | induced proliferation | 5 to 13.3 µM | hepatocyte phenotype of treated iHeps (iHeps [6]): more mature hepatocyte phenotypes; AFP secretion (ELISA) (iHeps [6]; treatment from day 21, 9 days): decreased; albumin secretion (ELISA) (iHeps [6]; treatment from day 21, 9 days): increased
